Laboratory results published in patent US10322999B2, “Oxindoles derivatives, preparation method thereof and pharmaceutical compositions for the prevention or treatment of cancer containing the same as an active ingredient” (RESEARCH & BUSINESS FOUNDATION SUNGKYUNKWAN UNIVERSITY, priority 2017, dated 2019).

Tests used:
[1] = tested on: human breast cancer cell line (MCF-7); test: MTT assay, growth inhibition of MCF-7 cells; type: cell-based; conditions: MCF7, MTT, 48 hours incubation, MCF-7, read-out: MCF-7 (IC50)
Protocol: (§1) To evaluate the anticancer activity of the oxindole derivatives produced and analyzed in examples 1 to 8, MTT assay was performed to confirm the growth inhibitory effect on cancer cells. More specifically, human prostate adenocarcinoma cell line (LNCaP), human breast cancer cell line (MCF-7), human ovarian cancer cell line (SKOV3), human lung cancer cell line […] and human renal adenocarcinoma cell line (786-O) were cultured in DMEM medium supplemented with 1% penicillin/streptomycin and 10% fetal bovine serum (All from Life Technologies, Grand Island, N.Y.). Cells were seeded in 96-well plates (3×10^3 cells/well) containing 100 μL of growth medium for 24 hours. After the medium was removed, 100 μL of each of the different analogues (dissolved in DMSO to 0.025% or less) was added to each well and cultured at 37° C. for 48 hours. After 48 hours of incubation, 100 μL of MTT reagent was added to each well. After incubation at 37° C. for 4 hours, the supernatant was aspirated, and the formazan crystals were dissolved in 100 μL of DMSO at 37° C. for 10 minutes with gentle stirring. Absorbance per well was measured at 540 nm using a VERSA max microplate reader (Molecular Devices Corp.). IC50 values were defined as compound concentrations that inhibited cell proliferation by 50% compared to cells treated with the highest amount of DMSO (0.025%) and were considered to be 100% viability.

[2] = tested on: human ovarian cancer cell line (SKOV3); test: MTT assay, growth inhibition of SKOV3 cells; type: cell-based; conditions: SK-OV-3, MTT, 48 hours incubation, SKOV3, read-out: SKOV3 (IC50)
Protocol: as §1

[3] = tested on: human renal adenocarcinoma cell line (786-O); test: MTT assay, growth inhibition of 786-O cells; type: cell-based; conditions: Homo sapiens, 786-0; MTT, 48 hours incubation, 786-O; read-out: 786-O (IC50)
Protocol: as §1

[4] = tested on: human prostate adenocarcinoma cell line (LNCaP); test: MTT assay, growth inhibition of LNCaP cells; type: cell-based; conditions: Homo sapiens; MTT, 48 hours incubation, LNCaP; read-out: LNCaP (IC50)
Protocol: as §1

[5] = tested on: human lung cancer cell line (A459); test: MTT assay, growth inhibition of A549 cells; type: cell-based; conditions: Homo sapiens; MTT, 48 hours incubation, A549; read-out: A549 (IC50)
Protocol: as §1

all carcinomas = test: MTT assay, summary over all five cancer cell lines; type: cell-based, human; conditions: summary of Table 3, all five cell lines
Protocol: as §1

IC50 [1] [µM] | IC50 [2] [µM] | IC50 [3] [µM] | IC50 [4] [µM] | IC50 [5] [µM] | Structure (SMILES) | inhibitory activity against all carcinomas (in words) (all carcinomas)
20.6 | 22.1 | 13.2 | 14.5 | 24.4 | CCCCOC(=O)c1[nH]c2cc(CC)ccc2c1C(=O)OCCCC [7a, Dibutyl 6-ethyl-1H-indole-2,3-dicarboxylate] | excellent
9.6 | 13.8 | 4.8 | 6 | 16.8 | CCc1ccccc1NN1C(=O)C(CC(=O)Nc2ccccc2)c2cccc(CC)c21 (stereo not drawn) [4g, 2-(7-Ethyl-1-((2-ethylphenyl)amino)-2-oxoindolin-3-yl)-N-phenylacetamide] | excellent
14.2 | 14.5 | 12.6 | 12.5 | 22.5 | CCc1ccccc1NN1C(=O)C(CC(=O)OCC(C)C)c2cccc(CC)c21 (stereo not drawn) [6d, Isobutyl 2-(7-ethyl-1-((2-ethylphenyl)amino)-2-oxoindolin-3-yl)acetate] | excellent
